Measured values published in PMC6149664, “Synthesis and In Vitro Antimycobacterial Activity of Novel N-Arylpiperazines Containing an Ethane-1,2-diyl Connecting Chain” (Molecules : A Journal of Synthetic Chemistry and Natural …, 2017).
Read-outs that look alike come from different tables or passages of the source.

Key:
[1] = UV/Vis spectra of methanolic solutions (log ε); type: physicochemical; details: methanolic solution c = 3.0 × 10^−5 M
Description: Electronic properties of the inspected compounds 8a–h (Table 3) were characterized by logarithms of molar absorption coefficients (log ε) of their methanolic solutions (c = 3.0 × 10^−5 M) investigated in the UV/Vis region of the spectrum.
The UV/Vis spectra of methanolic solutions of the analyzed compounds 8a–h (c = 3.0 × 10^−5 M) were estimated on the 8452A Diode Array spectrophotometer HP-8452A (Hewlett Packard, Palo Alto, CA, USA). Methanol for UV-spectroscopy (Merck) was used for the preparation of these solutions.
Results of the UV/Vis analyses were collected and stored digitally using the ChemStation controller software (Agilent Technologies, Waldbronn, Germany). The HP-8452A apparatus measured a complete range of a spectrum from 190 nm to 820 nm.
The log ε values characterizing methanolic solutions of the analyzed compounds 8a–h (c = 3.0 × 10^−5 M) were estimated at λ1 = 208–210 nm, λ2(Ch-T) = 238–240 nm and λ3 = 274–276 nm (Table 3), respectively, in a near ultraviolet (quarz) region of the electromagnetic spectrum between 200 and 400 nm. The log ε values for the observed absorption maxima were calculated according to the Lambert-Beer´s law discussed in [47], for example, and expressed by Equation (8):A = ε × c × l(8) where the A parameter represented the absorbance of a solution, the descriptor ε was a molar absorption coefficient (in the L/mol/cm units) and l was the path length (in the cm units).

[2] = system: M. avium intracellulare ATCC 13950; assay: In vitro antimycobacterial MIC (IC90), alamarBlue 96-well assay in Middlebrook broth; type: cell-based, Mycobacterium avium intracellulare; details: Mycobacterium avium, ATCC13950, 168 h, 7 days incubation, read-out: MIC, MAI ATCC 13950
M. kansasii CIT11/06 = assay: as above; type: cell-based, Mycobacterium kansasii; details: Mycobacterium kansasii, CIT11/06, 168 h, 7 days incubation, read-out: MIC, MK CIT11/06
[3] = system: M. kansasii CNCTC My 235/80 (identical with ATCC 12478); assay: In vitro antimycobacterial MIC, dilution-micromethod in Šula semisynthetic medium; type: cell-based, Mycobacterium kansasii; details: Mycobacterium kansasii, read-out: MIC, MK My 235/80
[4] = system: M. kansasii 6 509/96 clinical isolate; assay: as above; type: cell-based; details: Mycobacterium kansasii, read-out: MIC, MK 6 509/96
[5] = system: M. avium hominissuis CIT10/08; assay: In vitro antimycobacterial MIC (IC90), alamarBlue 96-well assay in Middlebrook broth; type: cell-based, Mycobacterium avium hominissuis; details: Mycobacterium avium, 168 h, 7 days incubation, read-out: MIC, MAH CIT10/08
[6] = type: physicochemical; set-up: key to RM (RP-TLC): RM = log(1/Rf - 1), from Rf in HCl/acetone mobile phase
Protocol: In the RP-TLC, silica gel plates impregnated by a hand with a variously concentrated silicone oil in heptane (a strong hydrophobic agent) were used as a non-polar stationary phase. Optimal differences in RM values within both homological groups 8a–d and 8e–h were observed if 1% silicone oil in heptane was chosen (Tables 1 and S1 in Supplementary Materials).
The RM values were calculated according to Equation (5) from the Rf parameters observed in a SM mobile phase: hydrochloric acid (c = 1.0 M)/acetone (4:1, v/v):RM = log (1/Rf – 1)(5)
For the experiments, aluminium sheets pre-coated with silica gel 60 F254 (0.25 mm thickness; Merck) were impregnated by a variously concentrated silicone oil in heptane, which ranged from 1% to 5%. The plates were separately spotted with 2 µL of methanolic solutions of each compound (c = 1 mg/mL), starting points were 1 cm from a bottom edge of these plates. The chromatographic plates were developed in glass developing chambers saturated for 30 min by the SM mobile phase. Development was carried out upon 15 cm from a starting line by an ascending technique. After being developed, the plates were dried at room temperature. Detection of zones was performed under iodine vapours/UV light at λ = 254 nm. Each experiment was run in triplicate at 21 °C, the RM values of analytes were calculated separately for each run.
Optimal differences in RM values within both homological groups 8a–d and 8e–h were observed if 1% silicone oil in heptane was chosen. The Rfs were found in a range from 0.19 (8h) to 0.78 (8a; Table 1). All the calculated average RM values were summarized in Table S1 (Supplementary Materials).

[7] = system: M. avium CNCTC My 330/80 (identical with ATCC 25291); assay: In vitro antimycobacterial MIC, dilution-micromethod in Šula semisynthetic medium; type: cell-based; details: Mycobacterium avium, read-out: MIC, MA My 330/88
[8] = system: M. tuberculosis CNCTC My 331/88 (identical with H37Rv and ATCC 2794); assay: as above; type: cell-based; details: Mycobacterium tuberculosis
[9] = system: M. avium subsp. paratuberculosis CIT03; assay: microbe, parasite or virus in culture; type: cell-based; details: Mycobacterium avium, 168 h; 7 days incubation, alamarBlue; MIC = IC90; read-out: MIC, MAP CIT03

Question: Which “log ε2(Ch-T)” value ([1]; charge-transfer maximum λ2(Ch-T) = 238–240 nm) does the source give for `CCCCOC(=O)Nc1ccc(C(O)CN2CCN(c3ccccc3F)CC2)cc1.Cl` (stereo not drawn) [8h, 1-(2-{4-[(Butoxycarbonyl)amino]phenyl}-2-hydroxyethyl)-4-(2-fluorophenyl)piperazin-1-ium chloride] here?
Answer: 4.42

Question: What about the “log ε1” value ([1]; λ1 = 208–210 nm) of the same molecule?
Answer: 4.34

Question: And the “log ε3” value ([1]; λ3 = 274–276 nm)?
Answer: 3.42

Question: And the MIC [2]?
Answer: > 553 µM

Question: And the MIC (M. kansasii CIT11/06)?
Answer: > 553 µM

Question: What about the MIC ([3]; ATCC12478, 168 h, 7 d cultivation) of the same molecule?
Answer: 62.5 µM

Question: What about the MIC ([3]; ATCC12478, 336 h, 14 d cultivation) of the same molecule?
Answer: > 125 µM

Question: What about the MIC ([3]; ATCC12478, 504 h, 21 d cultivation) of the same molecule?
Answer: > 125 µM

Question: What about the MIC ([4]; 168 h, 7 d cultivation) of the same molecule?
Answer: 125 µM

Question: And the MIC ([4]; 336 h, 14 d cultivation)?
Answer: > 250 µM

Question: And the MIC ([4]; 504 h, 21 d cultivation)?
Answer: > 250 µM

Question: And the MIC [5]?
Answer: > 553 µM

Question: What about the “RM, lipophilicity index (RP-TLC)” value [6] of the same molecule?
Answer: 0.63

Question: What about the “RM (RP-TLC)” value ([6]; silica gel plates impregnated with 3% silicone oil in heptane) of the same molecule?
Answer: 0.83

Question: And the “RM (RP-TLC)” value ([6]; silica gel plates impregnated with 5% silicone oil in heptane)?
Answer: 0.83

Question: And the MIC ([7]; ATCC25291, 336 h, 14 d cultivation)?
Answer: > 250 µM

Question: What about the MIC ([7]; ATCC25291, 504 h, 21 d cultivation) of the same molecule?
Answer: 250 µM

Question: What about the MIC ([8]; 336 h, 14-d/21-d cultivation, read-out: MIC against M. tuberculosis CNCTC My 331/88) of the same molecule?
Answer: 8 µM

Question: And the MIC ([8]; 336 h, 14 d cultivation, read-out: MIC, MT My 331/88)?
Answer: 8 µM

Question: What about the MIC ([8]; 504 h, 21 d cultivation, read-out: MIC, MT My 331/88) of the same molecule?
Answer: 8 µM

Question: And the MIC [9]?
Answer: > 553 µM
